The test system of the assay is C. neoformans H99. Put plainly: Epsilometer test (E-test) with fluconazole strips. The class given is cell-based. As to conditions: YPD plates with 4456dh, fluconazole E-test strip, 37°C, 72 h, dose-dependent. As for the experimental part:
Inhibitors of Tps1 may work synergistically with known antifungal drugs. In C. glabrata, the trehalose biosynthesis mutant, tps2Δ, is more susceptible to fluconazole at 37°C ([40]). Therefore, we hypothesized that there might be synergy between 4456dh and fluconazole.
169 different concentrations (0.5mM, 1mM, and 5mM) and one was used as untreated control.
170 tps1/ tps1 deletion mutant was used as a negative control for filamentation in these assays. 10 µl
171 of cell suspension was directly used for imaging the filamentation status of the cells using the
172 Zeiss Axio Scope microscope attached to the Axiocam at 40X magnification. The images were
173 processed using Fiji (8) for the final presentation.
174 Epsilometer Test (E-test)
175 C. neoformans wild type (H99) was incubated in a shaking culture of YPD medium for 18 h at
176 30 °C. The culture was diluted to an OD600 0.6, diluted 10-fold in PBS, and 100 µL was spread
177 onto 60 X 15 mm YPD agar plates prepared with different concentrations of 4456dh. After the […]
190 (Zeiss). The size of the capsule of > 100 cells per 4456dh treatment was quantified using Image […]
247 was measured using a colorimetric glucose assay after treatment of cultures with trehalase. […]
249 Supplemental Figure 11. Quantification of capsule formation in C. neoformans treated with
250 4456dh. Images taken were analyzed with ImageJ. […]
251 were analyzed. […]

As to `Cn1cc(-c2csc(NC(=O)Cc3ccccn3)n2)cn1` [Compound 4456dh], the synergy with fluconazole result is “detected synergy”.

(Values after PMC12505902, “Inhibitors of trehalose-6-phosphate synthase activity in fungal pathogens compromise thermal tolerance pathways” (mBio, 2025).)
